Experimental data reported in US20150352099A1, “Compositions and Methods of Reducing Sedation” (Mentinova Inc., priority 2014, published 2015).
Structures can show the parent of a compound that is named as a salt.

Key:
[1] = Pharmacokinetic parameters (Cmax, AUC, Tmax) of opioid given alone or with dopaminergic agent; details: sc, 0.25 mg/kg; for AUC / Cmax: plasma; for Tmax: serum
[2] = test system: Parkinsonian non-human primates; assay: Drug effects on the nervous system (DENS) sedation scores, nalbuphine monotherapy; type: in vivo; details: for Sedation Items: Appetite / Sedation Items: Attentiveness / Sedation Items: Eye Movement / Sedation Items: Mouth (excessive salivation, drooling) / Sedation Items: Reactivity: DENS score, total of all intervals; for Sedation Items: Total: total sedation score
Description: Parkinsonian non-human primates (n=6) were injected (s.c.) with Nalbuphine HCl (NB, dissolved in saline) and evaluated for changes in parkinsonian motor disability (MDS) and drug effects on the nervous system (DENS). Evaluations were performed immediately before injection (baseline), at 30 minutes post-injection and again every 20 minutes thereafter for 110 minutes or until effects were no longer observable. Five NB doses (0.0, 0.016, 0.05, 0.16, 0.50 mg/kg) were tested in each animal with each dose tested 3 times in all animals.
Itemized Sedation scores (see Uthayathas et al., “Assessment of adverse effects of neurotropic drugs in monkeys with the ‘drug effects on the nervous system’ (DENS) scale,” J Neurosci Methods. 2013 Apr. 30; 215(1):97-102, for complete description of the DENS scale, incorporated by reference herein in its entirety). The items in this scale are given in the table with the exception of “Involuntary Movements”, “Bowel” and “Bladder”, which were omitted because they were not scored with this scale. Scores are total values from adding all intervals. Higher scores reflect increased sedative effects. […] Values represent the means±SEM of all animals (n=6).

[3] = test system: Parkinsonian non-human primates; assay: Parkinsonian motor disability scores (MDS) versus sedation scores; type: in vivo; details: nalbuphine 0.016 mg/kg-0.50 mg/kg in primates; the FIGURE
Text: The foregoing summary, as well as the following detailed description of the invention, will be better understood when read in conjunction with the appended drawings. The FIGURE is a graph showing total sedation scores as a function of motor disability in non-human primates treated with nalbuphine HCl monotherapy.
In other words, severity of dopamine deficiency is a predictor of the sedation severity for the same dose of nalbuphine given to different animals.
Parkinsonian non-human primates (n=6) were injected (s.c.) with Nalbuphine HCl (NB, dissolved in saline) and evaluated for changes in parkinsonian motor disability (MDS) and drug effects on the nervous system (DENS). Evaluations were performed immediately before injection (baseline), at 30 minutes post-injection and again every 20 minutes thereafter for 110 minutes or until effects were no longer observable. […]
Animals (n=6) were injected (s.c.) with NB immediately prior to receiving L-dopa (LD; levodopa methyl ester plus 25% benserazide, dissolved in saline and given s.c.). The LD dose was determined individually for each animal based on ‘on’ response and consistency of dyskinesia. Animals were evaluated for changes in parkinsonian motor disability scores (MDS), drug effects on the nervous system (Sedation) and severity of dyskinesias. […]

[4] = NB 0.016 mg/kg s.c., mean ± SEM n=6
[5] = NB 0.05 mg/kg s.c., mean ± SEM n=6
[6] = NB 0.16 mg/kg s.c., mean ± SEM n=6
[7] = NB 0.5 mg/kg s.c., mean ± SEM n=6

`Oc1ccc2c3c1O[C@H]1[C@@H](O)CC[C@@]4(O)[C@@H](C2)N(CC2CCC2)CC[C@]314` [NB, Nalbuphine HCl] showed an AUC ([1]; average AUC of opioid, nalbuphine 0.25 mg/kg subcutaneously with L-DOPA 25 mg/kg subcutaneously) of roughly 89 ng·h/mL, an AUC ([1]; average AUC, nalbuphine 0.25 mg/kg subcutaneously, alone) of roughly 96 ng·h/mL and a Cmax ([1]; average Cmax of opioid, nalbuphine 0.25 mg/kg subcutaneously with L-DOPA 25 mg/kg subcutaneously) of roughly 55 ng/mL. For the same molecule, the Cmax ([1]; average Cmax, nalbuphine 0.25 mg/kg subcutaneously, alone) was roughly 49 ng/mL, the Tmax ([1]; average Tmax of opioid, nalbuphine 0.25 mg/kg subcutaneously with L-DOPA 25 mg/kg subcutaneously) was roughly 32 min and the Tmax ([1]; average Tmax, nalbuphine 0.25 mg/kg subcutaneously, alone) was roughly 37 min. The “Sedation Items: Appetite” value [2, 4] was 0.13 ± 0.13, the “Sedation Items: Attentiveness” value [2, 4] was 2.00 ± 0.73 and the “Sedation Items: Eye Movement” value [2, 4] was 0.17 ± 0.17. For the same molecule, the “Sedation Items: Mouth (excessive salivation, drooling)” value (“Sedation Items: Mouth” below) [2, 4] was 0.13 ± 0.09, the “Sedation Items: Reactivity” value [2, 4] was 0.67 ± 0.36 and the “Sedation Items: Total” value ([2]; NB 0.016 mg/kg s.c.) was 3.08. For the same molecule, the “Sedation Items: Appetite” value [2, 5] was 0.56 ± 0.26, the “Sedation Items: Attentiveness” value [2, 5] was 2.75 ± 1.07 and the “Sedation Items: Eye Movement” value [2, 5] was 0.54 ± 0.25. The “Sedation Items: Mouth” value [2, 5] was 0.17 ± 0.11, the “Sedation Items: Reactivity” value [2, 5] was 1.58 ± 0.85 and the “Sedation Items: Total” value ([2]; NB 0.05 mg/kg s.c.) was 5.61. The “Sedation Items: Mouth” value ([2]; NB 0.16 mg/kg s.c., mean n=6) was 0.00, the “Sedation Items: Appetite” value [2, 6] was 1.48 ± 1.03 and the “Sedation Items: Attentiveness” value [2, 6] was 3.17 ± 1.51. The “Sedation Items: Eye Movement” value [2, 6] was 2.44 ± 0.94, the “Sedation Items: Reactivity” value [2, 6] was 4.1 ± 1.60 and the “Sedation Items: Total” value ([2]; NB 0.16 mg/kg s.c.) was 11.19. The “Sedation Items: Appetite” value [2, 7] was 4.79 ± 0.78, the “Sedation Items: Attentiveness” value [2, 7] was 5.17 ± 1.34 and the “Sedation Items: Eye Movement” value [2, 7] was 3.29 ± 1.10. For the same molecule, the “Sedation Items: Mouth” value [2, 7] was 1.17 ± 1.07, the “Sedation Items: Reactivity” value [2, 7] was 6.65 ± 2.15 and the “Sedation Items: Total” value ([2]; NB 0.5 mg/kg s.c.) was 21.06. For the same molecule, the “parkinsonian motor disability scores (MDS) versus sedation scores” value [3] was “correlate with sedation scores”.
